One test has as its system NIH 3T3 (Mus musculus). The test is described as follows: Ratio of the peak heights normalized to the peak of clotrimazole as a reference was a measure of intracellular [Ca2+] stores depletion in NIH 3T3 cell.
A further test has as its system A549. Description: Concentration required for growth inhibition of human lung cancer cells (A549). Type of test: functional.
Another test relates to DU-145. The test is described as follows: Concentration required for growth inhibition of human prostate cancer cells (DU145) was determined. Type of test: functional, cell-based.

The term GI50 denotes the concentration at which growth is held to half of that of the control. For `CC(C)(C)c1ccc(S(=O)(=O)Nc2ccc(O)cc2)cc1`, in the test on NIH 3T3 (Mus musculus), the Ratio came out at 0.33. This compound gave a GI50 in the test with A549 of 14 µM.

Broadly, the IC50 is the concentration needed to halve the response being measured. Read a high IC50 as weaker potency. The compound `CC(C)(C)c1ccc(O)c(C2(c3ccccc3)C(=O)Nc3ccccc32)c1` (stereo unspecified) displayed an IC50 with DU-145 of 2.49 µM. For the same compound, in the test with NIH 3T3 (Mus musculus), the Ratio was found to be 1.1. In the test with A549, it took 3 µM to inhibit growth by half (GI50).

In the case of `CC(C)(C)c1ccc(S(=O)(=O)Nc2ccccc2)cc1`, the Ratio in the test with NIH 3T3 (Mus musculus) is given as 1.44. Moreover, the GI50 in the test with A549 was 16 µM.

Take `Cc1ccc(NS(=O)(=O)c2ccc(I)cc2)cc1O`: the Ratio with NIH 3T3 (Mus musculus) was 0.45. Also, in the test on A549, the GI50 amounted to 15 µM.

Regarding `Cc1ccc(NS(=O)(=O)c2ccc(Oc3ccccc3)cc2)cc1O`, in the test on NIH 3T3 (Mus musculus), the Ratio is 1.1. This compound also had a GI50 in the test with A549 of 7 µM.

Turning to `Cc1cc(C2(c3ccccc3)C(=O)Nc3ccccc32)c(NS(=O)(=O)c2ccc(Oc3ccccc3)cc2)cc1O` (stereo unspecified), the Ratio with NIH 3T3 (Mus musculus) is 0. In the test with A549, this compound gave a GI50 of 5 µM.

`O=C1Nc2ccccc2C1(c1ccccc1)c1ccccc1` registered an IC50 in the test with DU-145 of 12.5 µM. In addition, the Ratio in the test with NIH 3T3 (Mus musculus) was found to be 0.87. In the test with A549, halving of growth (GI50) required 13 µM.

With `Cc1ccc(NS(=O)(=O)c2ccc(C(C)(C)C)cc2)cc1O`, the Ratio in the test with NIH 3T3 (Mus musculus) is recorded as 1.12. Further, halving of growth in the test on A549 (GI50) required 6 µM.

On to `Cc1cc(C2(c3ccccc3)C(=O)Nc3ccccc32)c(NS(=O)(=O)c2ccc(-c3ccccc3)cc2)cc1O` (stereo unspecified), for which the Ratio in the test with NIH 3T3 (Mus musculus) came out at 0. The concentration for 50% growth inhibition (GI50) in the test on A549 is 4 µM.

As to `O=[N+]([O-])c1ccc(S(=O)(=O)Nc2ccccc2)cc1`, the Ratio in the test on NIH 3T3 (Mus musculus) came out at 0.13. The compound also had a 50% growth inhibitory concentration (GI50) in the test on A549 of 52 µM.

Take `CC(=O)Nc1ccc(S(=O)(=O)Nc2ccc(C)c(O)c2)cc1`: the Ratio in the test with NIH 3T3 (Mus musculus) came to 0.19. The same compound returned a GI50 in the test on A549 of 48 µM.

On to `O=S(=O)(Nc1ccccc1)c1ccc(Br)cc1`, for which the Ratio in the test with NIH 3T3 (Mus musculus) is 0.38. In the test with A549, this compound came in with a concentration for 50% growth inhibition (GI50) of 30 µM.

Take `Cc1ccccc1NS(=O)(=O)c1ccc(C(C)(C)C)cc1`: the Ratio in the test on NIH 3T3 (Mus musculus) was found to be 0.49. Moreover, in the test with A549, the GI50 was above 80 µM.

As to `O=S(=O)(Nc1ccccc1)c1ccc(-c2ccccc2)cc1`, the Ratio with NIH 3T3 (Mus musculus) is listed as 1.37. Moreover, in the test on A549, growth was halved (GI50) at 17 µM.

`Cc1cccc(NS(=O)(=O)c2ccc(C(C)(C)C)cc2)c1`: the Ratio with NIH 3T3 (Mus musculus) came to 0.95. For the same compound, in the test with A549, it took 80 µM to inhibit growth by half (GI50).

In the case of `O=S(=O)(Nc1ccccc1)c1ccc(I)cc1`, the Ratio in the test with NIH 3T3 (Mus musculus) turned out to be 0.87. The concentration for 50% growth inhibition (GI50) in the test on A549 came to 23 µM.

Take `Cc1ccc(NS(=O)(=O)c2ccc([N+](=O)[O-])cc2)cc1O`: the Ratio with NIH 3T3 (Mus musculus) is reported as 0.14. This compound gave a GI50 in the test with A549 of 29 µM.

Take `Cc1ccc(NS(=O)(=O)c2ccc(Br)cc2)cc1O`: the Ratio in the test with NIH 3T3 (Mus musculus) is recorded as 0.27. The compound also had a 50% growth inhibitory concentration (GI50) in the test on A549 of 20 µM.

With `Cc1ccc(NS(=O)(=O)c2ccc(-c3ccccc3)cc2)cc1O`, in the test with NIH 3T3 (Mus musculus), the Ratio is 0.72. In the test on A549, this compound came in with a concentration for 50% growth inhibition (GI50) of 9 µM.

As to `O=S(=O)(Nc1ccccc1)c1ccccc1` [PHENYL(PHENYLSULFONYL)AMINE], the Ratio with NIH 3T3 (Mus musculus) is given as 0. Moreover, the 50% growth inhibitory concentration (GI50) in the test with A549 was above 80 µM.

`Cc1cc(C2(c3ccccc3)C(=O)Nc3ccccc32)c(NS(=O)(=O)c2ccc(C(C)(C)C)cc2)cc1O` (stereo unspecified) registered a half-maximal inhibitory concentration (IC50) with DU-145 of 1.08 µM. For the same compound, the Ratio in the test with NIH 3T3 (Mus musculus) is listed as 1.06. The 50% growth inhibitory concentration (GI50) with A549 is 0.8 µM.

Consider `CC(C)(C)c1ccc(S(=O)(=O)Nc2cccc(O)c2)cc1`, for which, in the test with NIH 3T3 (Mus musculus), the Ratio was 0.55. In the test on A549, this compound gave a GI50 of 12 µM.

As to `Cc1ccc(NS(=O)(=O)c2ccc(C(C)(C)C)cc2)cc1`, the Ratio in the test with NIH 3T3 (Mus musculus) is listed as 1.11. Also, growth in the test on A549 was halved (GI50) at 11 µM.

As for `Cc1ccc(NS(=O)(=O)c2ccc(C(C)(C)C)cc2)c(O)c1`, in the test with NIH 3T3 (Mus musculus), the Ratio was determined as 1.44. The same compound had a 50% growth inhibitory concentration (GI50) in the test on A549 of 8 µM.

On to `COc1ccc(S(=O)(=O)Nc2ccc(C)c(O)c2)cc1`, for which the Ratio with NIH 3T3 (Mus musculus) is 0.12. The same compound registered a GI50 with A549 of 51 µM.

As for `COc1ccc(S(=O)(=O)Nc2ccccc2)cc1`, the Ratio in the test with NIH 3T3 (Mus musculus) was found to be 0.63. For the same compound, the GI50 in the test on A549 was 16 µM.

For the compound `Cc1cc(O)c(NS(=O)(=O)c2ccc(C(C)(C)C)cc2)cc1C1(c2ccccc2)C(=O)Nc2ccccc21` (stereo unspecified), in the test on NIH 3T3 (Mus musculus), the Ratio is 0.44. Also, the GI50 in the test with A549 was above 20 µM.

Take `CN(c1ccccc1)S(=O)(=O)c1ccc(C(C)(C)C)cc1`: in the test on NIH 3T3 (Mus musculus), the Ratio was 0.14. The compound further registered a concentration for 50% growth inhibition (GI50) with A549 of 30 µM.

As for `CC(C)(C)c1ccc(S(=O)(=O)Nc2ccccc2O)cc1`, in the test with NIH 3T3 (Mus musculus), the Ratio amounted to 1.17. This compound also returned a concentration for 50% growth inhibition (GI50) in the test on A549 of 13 µM.
